64 compounds from PubChem BioAssay AID1863 (Southern Research Specialized Biocontainment Screening …, 2009) can be followed below.

The structures appear in SMILES notation.

This experiment deals with S. Typhimurium PhoP-regulated promoter GFP reporter, 4 h. In words: inhibitors of PhoP regulon expression, primary screen, Salmonella Typhimurium, GFP reporter (AID 1863).
One may read the IC50 as the concentration needed to halve the response being measured. Consider `CC(C)CCNCC(O)CON=C1c2ccccc2-c2ccccc21` (centres undefined), for which the IC50 was 123 µM.

Regarding `CCn1cc(C(=O)O)c(=O)c2cc(F)c(N3CCN(C(=S)NC(=O)c4cccc(F)c4)CC3)cc21`, the IC50 is 18.3 µM. The result for `COc1cccc(Nc2nc(NCC3CCCO3)c3ccccc3n2)c1` (centres undefined) reads 82 µM; that for `Cc1cc(C)n(-c2nc(NCCN(C)C)c3c4c(sc3n2)CCCC4)n1`, 103 µM. For `O=C1C=C(O)c2c(O)cc(O)c(O)c2C1=O`, the IC50 was 73.2 µM. The figure for `Oc1cccc(/C=N/NC(=S)Nc2cccnc2)c1O` is 45.6 µM.

`Fc1ccccc1CCNCc1ccccc1`: the IC50 is 58.8 µM.

In the case of `Cc1conc1NC(c1cccs1)c1ccc2cccnc2c1O` (centres undefined), the IC50 was 60.9 µM.

In the case of `Oc1c(CN2CCN(c3ccc(F)cc3)CC2)cc(Cl)c2cccnc12`, the IC50 was 49 µM. Regarding `C=C1c2cccc(O)c2C(O)=C2C(=O)[C@]3(O)C(O)=C(C(N)=O)C(=O)[C@@H](N(C)C)[C@@H]3[C@@H](O)[C@H]12`, the IC50 is 1.41 µM.

For `CCn1cc(C(=O)NCCCO)c(=O)c2cc(F)c(N3CCN(C)CC3)cc21`, the IC50 was 25.5 µM.

With `CCCCCc1ccc(OCCC[n+]2ccccc2)c(CCCCC)c1`, the IC50 was 83.2 µM.

For `COc1cccc(/C=N\NC(=O)Cn2nnc3ccccc32)c1O`, the IC50 was 84.3 µM. The figure for `CCCNC1=C(C)C(=O)C2=C(C1=O)C(COC(N)=O)[C@]1(OC)C3NC3CN21` (some centres undefined) is 23.8 µM; for `CC(C)COc1ccc(Cc2cnc(N)nc2N)cc1` it is 96.7 µM; for `Clc1ccc(-c2c[n+](Cc3ccc(Cl)cc3Cl)c3n2CCCCC3)cc1` it is 125 µM. The figure for `O=c1c2c(-c3ccccc3)csc2nc2c3ccccc3c(NCCN3CCOCC3)nn12` is 53.3 µM; for `Cc1ccnc(NC(c2cccnc2)c2ccc3cccnc3c2O)c1` (centres undefined) it is 57.1 µM; for `CCn1cc(C(=O)O)c(=O)c2cc(F)c(N3CCN(C(=S)Nc4ccc(OC)cc4)CC3)cc21` it is 6.05 µM. For the compound `CCN1/C(=C/C=C/c2sc3ccccc3[n+]2CC)Sc2ccccc21`, the IC50 is 33.5 µM.

For `CCn1cc(C(=O)O)c(=O)c2cc(F)c(N3CCN(C(=S)NC(=O)c4ccc(F)cc4)CC3)cc21`, the IC50 is 46.5 µM. Turning to `CC1CCc2cc(F)cc3c(=O)c(C(=O)O)cn1c23` (centres undefined), the IC50 is 5.94 µM. The result for `N=c1n(CC(=O)c2ccc(Br)s2)c2ccccc2n1Cc1ccccc1` reads 68.3 µM. In the case of `C#CCOCCOCCOCCNc1nc(N2CCN(C(=O)CCCCCCCCCCNC(=O)[C@H](CCCCN)n3cc(C[C@@H](C)CC)nn3)CC2)nc(N2CCN(C(=O)CCCCCCCCCCNC(=O)[C@H](CCCN=C(N)N)n3cc(C[C@@H](C)CC)nn3)CC2)n1`, the IC50 was 80.9 µM.

Regarding `Nc1nc(N2CCN(C/C=C/c3ccccc3)CC2)nc2ccccc12`, the IC50 is 147 µM. The result for `C=C1c2c(Cl)ccc(O)c2C(O)=C2C(=O)[C@]3(O)C(O)=C(C(N)=O)C(=O)[C@@H](N(C)C)[C@@H]3[C@@H](O)C12` (some centres undefined) reads 2.22 µM; that for `COC(=O)C1C(O)C(C)C(O)C(C)/C=C\C=C(/C)C(=O)Nc2c(C)c(OC(C)=O)c3c(c2O)C(=O)C(C)=C2OCOC(=C23)/C(C)=C/C(C)(O)C(O)C(C)C1O` (centres undefined), 14.8 µM; that for `NC(N)=NN=C1CCCCCCCCCCC1`, 100 µM. The figure for `Oc1cccc(Nc2c3ccccc3nc3ccccc23)c1` is 147 µM; for `CCCOc1ccc(C(=O)C(CCC(CNCC)C(=O)c2ccc(OCCC)cc2)CNCC)cc1` (centres undefined) it is 94.6 µM.

`Clc1ccc(OCCCNCc2ccccc2)c(Br)c1`: the IC50 is 68.7 µM. The figure for `O=c1c(O)cccc2cc(O)c(O)c(O)c12` is 27.5 µM; for `Cc1cc(C(=O)N/N=C/c2cc(Br)cc([N+](=O)[O-])c2O)c2ccccc2n1` it is 118 µM; for `CCn1cc(C(=O)O)c(=O)c2cc(F)c(N3CCN(C(=S)NC(=O)c4ccccc4)CC3)cc21` it is 10.5 µM. As to `CC(=O)NC(c1cccs1)c1cc([N+](=O)[O-])c2cccnc2c1O` (centres undefined), the IC50 is 38.9 µM. The figure for `Oc1c(CN2CCc3ccccc3C2)cc(Cl)c2cccnc12` is 22 µM; for `CC(C(=O)NC1C=CS(=O)(=O)C1)N1C(=O)/C(=C/c2ccc(Cl)cc2)SC1=S` (centres undefined) it is 72.2 µM. For `O=C(c1ccccc1)c1c2c(cc3sc4ccccc4[n+]13)-c1cccc3cccc-2c13`, the IC50 is 79.6 µM. The result for `O=C1NN(c2ccccc2)C(=O)/C1=C\c1coc2ccc(O)cc2c1=O` reads 132 µM. The figure for `CCN1CCN(C(c2cccnc2)c2cc(Cl)c3cccnc3c2O)CC1` (centres undefined) is 78.5 µM. The result for `CN1CCc2c(sc(NC(=O)c3ccc([N+](=O)[O-])o3)c2C(N)=O)C1` reads 52.8 µM; that for `Oc1c(CN2CCOCC2)cc(COCc2ccccc2)c2cccnc12`, 97.8 µM; that for `CCCc1nnc(NC(=O)c2cn(CC)c3cc(N4CCN(C)CC4)c(F)cc3c2=O)s1`, 67.3 µM. `CC[C@H]1OC(=O)[C@H](C)[C@@H](O[C@H]2C[C@@](C)(OC)[C@@H](O)[C@H](C)O2)[C@H](C)[C@@H](O[C@@H]2O[C@H](C)C[C@H](N(C)C)[C@H]2O)[C@](C)(O)C[C@@H](C)CN(C)[C@H](C)[C@@H](O)[C@]1(C)O`: the IC50 was 2.36 µM. `COc1c(F)c(F)cc2c(=O)c(C(=O)O)cn(C3CC3)c12`: the IC50 was 37.5 µM.

Consider `CC[n+]1c(/C=C/c2ccc(N(C)C)cc2)ccc2ccccc21`, for which the IC50 was 54.8 µM. The figure for `C1=C(CCNCc2ccccc2)CCCC1` is 9.02 µM; for `COc1cc(C)c(Cc2cnc(N)nc2N)cc1OC` it is 11.7 µM; for `Nc1ccc2c(c1)C(=O)C(=O)c1ccccc1-2` it is 11.9 µM. The result for `C/C(=N\Nc1ncnc2sc(C)c(C)c12)c1ccccn1` reads 73.9 µM.

`O=C1c2ccccc2NC(c2ccc(-c3cccc(Cl)c3)o2)N1O` (centres undefined): the IC50 was 114 µM. The figure for `CCc1ccc(S(=O)(=O)/N=C2/C=C(Sc3ncn[nH]3)C(=O)c3ccccc32)cc1` is 99.4 µM; for `CO[C@@]1(NC(=O)C2SC(=C(C(N)=O)C(=O)O)S2)C(=O)N2C(C(=O)O)=C(CSc3nnnn3C)CS[C@@H]21` (some centres undefined) it is 16 µM; for `O=S1(=O)Nc2c(ccc3cccnc23)-c2ccccc21` it is 7.72 µM. The result for `Fc1ccc(Nc2nc(NCc3ccco3)c3ccccc3n2)cc1` reads 37.9 µM. The figure for `Cc1ccc(/C=C/C(=O)c2ccccc(=O)c2O)cc1C` is 42.6 µM. Take `O=C(N/N=C/c1cc(Cl)ccc1O)c1cccnc1`: the IC50 was 49.3 µM. Take `COc1ccc(OCc2n(CC(=O)OC3CC(C)CCC3C(C)C)c3ccccc3[n+]2C)cc1` (centres undefined): the IC50 was 74.9 µM. The result for `CCCOc1ccc(C(=O)NC(=S)N2CCN(c3cc4c(cc3F)c(=O)c(C(=O)O)cn4CC)CC2)cc1` reads 24.3 µM. Take `Nc1nc2ccccc2n1CCOc1ccccc1Cl`: the IC50 is 138 µM. The result for `CC[C@H]1OC(=O)[C@H](C)[C@@H](O[C@H]2C[C@@](C)(OC)[C@@H](O)[C@H](C)O2)[C@H](C)[C@@H](O[C@@H]2O[C@H](C)C[C@H](N(C)C)[C@H]2O)[C@](C)(O)C[C@@H](C)[C@@H]2N[C@@H](COCCOC)O[C@H]([C@H]2C)[C@]1(C)O` reads 33.1 µM; that for `Cc1ccccc1NC(=O)CCC(=O)N/N=C/c1cc([N+](=O)[O-])ccc1O`, 95.7 µM; that for `O=C(N/N=C/c1sc2ccccc2c1O)c1cccc2ccccc12`, 42.4 µM. The figure for `Cc1ccc(-c2csc(NC(=O)C[n+]3cc(-c4ccc(C)cc4)n4c3CCC4)n2)cc1` is 50 µM.
